# Reference: paper PMC7195589 (Journal of Ginseng Research, 2019)
# Target: muscle-type creatine kinase (CK-MM) (Homo sapiens, UniProt P06732)
# Experiment: BLI direct binding response at […]
# muscle-type creatine kinase (CK-MM), sequence (P06732 whole entry): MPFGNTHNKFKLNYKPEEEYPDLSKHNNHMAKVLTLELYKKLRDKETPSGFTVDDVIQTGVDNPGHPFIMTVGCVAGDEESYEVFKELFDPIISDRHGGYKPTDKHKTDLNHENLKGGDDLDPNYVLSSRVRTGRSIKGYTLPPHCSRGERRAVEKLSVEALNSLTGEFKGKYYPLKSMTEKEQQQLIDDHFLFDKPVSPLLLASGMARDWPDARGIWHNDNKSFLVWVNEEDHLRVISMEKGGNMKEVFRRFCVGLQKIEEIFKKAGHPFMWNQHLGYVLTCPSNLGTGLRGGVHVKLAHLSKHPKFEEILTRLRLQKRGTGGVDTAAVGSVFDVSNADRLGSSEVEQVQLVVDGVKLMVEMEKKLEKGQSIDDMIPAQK
row,Structure (SMILES),BLI direct binding response at 300 uM (no KD)
1,"CC(C)=CCC[C@](C)(O[C@@H]1O[C@H](CO)[C@@H](O)[C@H](O)[C@H]1O)[C@H]1CC[C@]2(C)[C@@H]1[C@H](O)C[C@@H]1[C@@]3(C)CC[C@H](O)C(C)(C)[C@@H]3CC[C@]12C [GK, ginsenoside compound K]","F1, Rh2, K, and their aglycones (PPT and PPD) displayed gradually direct interaction with CK-MM"
2,"CC(C)=CCC[C@](C)(O)[C@H]1CC[C@]2(C)[C@@H]1[C@H](O)C[C@@H]1[C@@]3(C)CC[C@H](O[C@@H]4O[C@H](CO)[C@@H](O)[C@H](O)[C@H]4O)C(C)(C)[C@@H]3CC[C@]12C [Rh2, ginsenoside Rh2]","F1, Rh2, K, and their aglycones (PPT and PPD) displayed gradually direct interaction with CK-MM"
3,"CC(C)=CCC[C@](C)(O)[C@H]1CC[C@]2(C)[C@@H]1[C@H](O)C[C@@H]1[C@@]3(C)CC[C@H](O)C(C)(C)[C@@H]3[C@@H](O)C[C@]12C [PPT, 20(S)-protopanaxatriol]","F1, Rh2, K, and their aglycones (PPT and PPD) displayed gradually direct interaction with CK-MM"
